Laboratory results: ChEMBL document CHEMBL4699665, “Discovery of ANT3310, a Novel Broad-Spectrum Serine β-Lactamase Inhibitor of the Diazabicyclooctane Class, Which Strongly Potentiates Meropenem Activity against Carbapenem-Resistant Enterobacterales and Acinetobacter baumannii” (J Med Chem, 2020)
In brackets after ≈: the same amount, converted by molar mass.

Tests used:
Enterobacter cloacae [1] = assay: Antibacterial activity against Enterobacter cloacae expressing TEM-1/KPC-2 by broth microdilution method; assay type: functional
Acinetobacter baumannii [2] = assay: Potentiation of meropenem-induced antibacterial activity against Acinetobacter baumannii expressing OXA-23 assessed as meropenem MIC at 4 ug/ml by broth microdilution method (reference value: 32 ug/ml); assay type: functional; conditions: dose 4 µg/ml
[3] = Inhibition of beta lactamase TEM-1 in Enterobacter cloacae assessed as decrease in enzyme activity using nitrocefin as substrate preincubated for 10 mins followed by substrate addition measured for 10 mins by fluorescence plate reader analysis
Klebsiella pneumoniae [4] = assay: Antibacterial activity against Klebsiella pneumoniae expressing TEM-OSBL/CTX-M-14/OXA-48 by broth microdilution method; assay type: functional
[5] = Half life in rat at 1 mg/kg, iv; assay type: ADME, organism-based; conditions: in vivo
Klebsiella pneumoniae [6] = assay: Potentiation of meropenem-induced antibacterial activity against Klebsiella pneumoniae expressing SHV-11/OXA-121 assessed as meropenem MIC at 4 ug/ml by broth microdilution method (reference value: 16 ug/ml); assay type: functional; conditions: dose 4 µg/ml
[7] = AUC in rat at 1 mg/kg, iv; assay type: ADME, organism-based; set-up: dose 1 mg/kg; conditions: in vivo
Klebsiella pneumoniae [8] = assay: Potentiation of meropenem-induced antibacterial activity against Klebsiella pneumoniae expressing TEM-1/SHV-11/KPC-3 assessed as meropenem MIC at 4 ug/ml by broth microdilution method (reference value: 128 ug/ml); assay type: functional; conditions: dose 4 µg/ml
[9] = Inhibition of beta lactamase CTXM-15 in Enterobacter cloacae assessed as decrease in enzyme activity using nitrocefin as substrate preincubated for 10 mins followed by substrate addition measured for 10 mins by fluorescence plate reader analysis
Klebsiella pneumoniae [10] = assay: Potentiation of meropenem-induced antibacterial activity against Klebsiella pneumoniae expressing TEM-OSBL/CTX-M-14/OXA-48 assessed as meropenem MIC at 4 ug/ml by broth microdilution method (reference value: 16 ug/ml); assay type: functional; conditions: dose 4 µg/ml
[11] = Clearance in rat at 1 mg/kg, iv; assay type: ADME, organism-based; conditions: in vivo
[12] = Volume of distribution in rat at 1 mg/kg, iv; assay type: ADME, organism-based; conditions: in vivo
Klebsiella pneumoniae [13] = assay: Antibacterial activity against Klebsiella pneumoniae expressing SHV-11/OXA-181 by broth microdilution method; assay type: functional
[14] = Inhibition of beta lactamase KPC-2 in Enterobacter cloacae assessed as decrease in enzyme activity using nitrocefin as substrate preincubated for 10 mins followed by substrate addition measured for 10 mins by fluorescence plate reader analysis
[15] = Inhibition of beta lactamase AmpC in Enterobacter cloacae assessed as decrease in enzyme activity using nitrocefin as substrate preincubated for 10 mins followed by substrate addition measured for 10 mins by fluorescence plate reader analysis
[16] = Inhibition of beta lactamase OXA-48 in Enterobacter cloacae assessed as decrease in enzyme activity using nitrocefin as substrate preincubated for 10 mins followed by substrate addition measured for 10 mins by fluorescence plate reader analysis
Acinetobacter baumannii [17] = assay: Antibacterial activity against Acinetobacter baumannii expressing OXA-23 by broth microdilution method; assay type: functional
Klebsiella pneumoniae [18] = assay: Antibacterial activity against Klebsiella pneumoniae expressing TEM-1/SHV-11/KPC-3 by broth microdilution method; assay type: functional
Enterobacter cloacae [19] = assay: Potentiation of meropenem-induced antibacterial activity against Enterobacter cloacae expressing TEM-1/KPC-2 assessed as meropenem MIC at 4 ug/ml by broth microdilution method (reference value: 8 ug/ml); assay type: functional; conditions: dose 4 µg/ml
[20] = Inhibition of bacteria beta lactamase OXA-23 assessed as decrease in enzyme activity using nitrocefin as substrate preincubated for 10 mins followed by substrate addition measured for 10 mins by fluorescence plate reader analysis
Acinetobacter baumannii [21] = assay: Inhibition of beta lactamase OXA in carbapenem-resistant Acinetobacter baumannii assessed as meropenem maximum concentration required for antibacterial activity at 4 ug/ml by broth microdilution method (Rvb > 32 ug/ml); conditions: dose 4.0 µg/ml
Acinetobacter baumannii [22] = assay: Inhibition of beta lactamase OXA in carbapenem-resistant Acinetobacter baumannii assessed as meropenem-induced antibacterial activity by measuring meropenem MIC50 at 4 ug/ml by broth microdilution method (Rvb > 32 ug/ml); conditions: dose 4.0 µg/ml
Enterobacter [23] = assay: Inhibition of beta lactamase KPC in carbapenem-resistant Enterobacter assessed as meropenem-induced antibacterial activity by measuring meropenem MIC50 at 4 ug/ml by broth microdilution method (Rvb >32 ug/ml); conditions: dose 4.0 µg/ml
Enterobacter [24] = assay: Inhibition of beta lactamase KPC in carbapenem-resistant Enterobacter assessed as meropenem maximum concentration required for antibacterial activity at 4 ug/ml by broth microdilution method (Rvb >32 ug/ml); conditions: dose 4.0 µg/ml
Acinetobacter baumannii [25] = assay: Inhibition of beta lactamase OXA in carbapenem-resistant Acinetobacter baumannii assessed as meropenem-induced antibacterial activity by measuring meropenem MIC90 at 4 ug/ml by broth microdilution method (Rvb > 32 ug/ml); conditions: dose 4.0 µg/ml
Enterobacter [26] = assay: Inhibition of beta lactamase OXA in carbapenem-resistant Enterobacter assessed as meropenem-induced antibacterial activity by measuring meropenem MIC 90 at 4 ug/ml by broth microdilution method (Rvb >32 ug/ml); conditions: dose 4.0 µg/ml
Enterobacter [27] = assay: Inhibition of beta lactamase OXA in carbapenem-resistant Enterobacter assessed as meropenem maximum concentration required for antibacterial activity at 4 ug/ml by broth microdilution method (Rvb > 32 ug/ml); conditions: dose 4.0 µg/ml
Enterobacter [28] = assay: Inhibition of beta lactamase KPC in carbapenem-resistant Enterobacter assessed as meropenem minimum concentration required for antibacterial activity at 4 ug/ml by broth microdilution method (reference value: 4 ug/ml); conditions: dose 4.0 µg/ml
Enterobacter [29] = assay: Inhibition of beta lactamase OXA in carbapenem-resistant Enterobacter assessed as meropenem-induced antibacterial activity by measuring meropenem MIC50 at 4 ug/ml by broth microdilution method (reference value: 16 ug/ml); conditions: dose 4.0 µg/ml
Acinetobacter baumannii [30] = assay: Inhibition of beta lactamase OXA in carbapenem-resistant Acinetobacter baumannii assessed as meropenem minimum concentration required for antibacterial activity at 4 ug/ml by broth microdilution method (reference value: 8 ug/ml); conditions: dose 4.0 µg/ml
Enterobacter [31] = assay: Inhibition of beta lactamase OXA in carbapenem-resistant Enterobacter assessed as meropenem minimum concentration required for antibacterial activity at 4 ug/ml by broth microdilution method (reference value: 2 ug/ml); conditions: dose 4.0 µg/ml
Enterobacter [32] = assay: Inhibition of beta lactamase KPC in carbapenem-resistant Enterobacter assessed as meropenem-induced antibacterial activity by measuring meropenem MIC90 at 4 ug/ml by broth microdilution method (Rvb >32 ug/ml); conditions: dose 4.0 µg/ml

SMILES	MIC (Acinetobacter baumannii [2]) [µg/mL]	IC50 [3] [nM]	MIC (Klebsiella pneumoniae [6]) [µg/mL]	MIC (Klebsiella pneumoniae [8]) [µg/mL]	IC50 [9] [nM]	MIC (Klebsiella pneumoniae [10]) [µg/mL]	IC50 [14] [nM]	IC50 [15] [nM]	IC50 [16] [nM]	MIC (Enterobacter cloacae [19]) [µg/mL]	IC50 [20] [nM]	further results
NC(=O)[C@@H]1CC[C@@H]2CN1C(=O)N2OS(=O)(=O)O [AVIBACTAM]	16	5	1	0.25	1	0.5	8	8	252	0.03	> 3000	MIC (Enterobacter cloacae [1]): 16 µg/mL (≈ 60.3 µM); MIC (Klebsiella pneumoniae [4]): 16 µg/mL (≈ 60.3 µM); half-life [5]: 22.2 min; AUC [7]: 279 ng·h/mL; clearance [11]: 59 mL/min/kg; Vd [12]: 1.9 L/kg; MIC (Klebsiella pneumoniae [13]): 32 µg/mL (≈ 121 µM); MIC (Acinetobacter baumannii [17]): > 128 µg/mL; MIC (Klebsiella pneumoniae [18]): 16 µg/mL (≈ 60.3 µM)
O=C1N2C[C@@H](CC[C@H]2COC(F)(F)F)N1OS(=O)(=O)[O-].[Na+]	32	117	16	32	11	8	13	23	15	0.25	> 3000	
O=C1N2C[C@@H](CC[C@H]2S(=O)(=O)C(F)(F)F)N1OS(=O)(=O)[O-].[Na+]	32	1	16	8	2	8	15	< 1	15	0.06		
O=C1N2CCC[C@H](C2)N1OS(=O)(=O)[O-].[Na+]	32	511	8	64	1200	4	> 3000	> 3000	1340	2	> 3000	
O=C1N2C[C@@H](CC[C@H]2C(F)(F)F)N1OS(=O)(=O)[O-].[Na+]	16	810	2	2	10	2	6	4	19	0.06	810	
N#C[C@@H]1CC[C@@H]2CN1C(=O)N2OS(=O)(=O)[O-].[Na+]	4	67	0.25	0.5	4	0.06	8	3	2	0.06	59	Activity (Acinetobacter baumannii [21]): > 32 µg/mL; MIC50 (Acinetobacter baumannii [22]): 16 µg/mL; MIC50 (Enterobacter [23]): 0.06 µg/mL; Activity (Enterobacter [24]): 16 µg/mL; MIC90 (Acinetobacter baumannii [25]): 32 µg/mL; MIC90 (Enterobacter [26]): 0.25 µg/mL; Activity (Enterobacter [27]): 0.5 µg/mL; MIC (Enterobacter [28]): < 0.03 µg/mL; MIC50 (Enterobacter [29]): 0.12 µg/mL; MIC (Acinetobacter baumannii [30]): 0.25 µg/mL; MIC (Enterobacter [31]): < 0.03 µg/mL; MIC90 (Enterobacter [32]): 1 µg/mL
O=C1N2C[C@@H](CC[C@H]2C(Cl)Cl)N1OS(=O)(=O)[O-].[Na+]	32	403	16	2	178	16	4	52	178	0.06	1680	
O=C1N2C[C@@H](CC[C@H]2CF)N1OS(=O)(=O)[O-].[Na+]	32	492	1	2	119	1	51	304	154	0.125	> 3000	
O=C(NNC(=O)[C@@H]1CC[C@@H]2CN1C(=O)N2OS(=O)(=O)O)[C@@H]1CCCNC1 [ZIDEBACTAM]												MIC (Enterobacter cloacae [1]): 0.5 µg/mL (≈ 1.28 µM); MIC (Klebsiella pneumoniae [4]): 0.25 µg/mL (≈ 0.639 µM); MIC (Klebsiella pneumoniae [13]): 2 µg/mL (≈ 5.11 µM); MIC (Acinetobacter baumannii [17]): > 128 µg/mL; MIC (Klebsiella pneumoniae [18]): 2 µg/mL (≈ 5.11 µM)
CC(F)(F)[C@@H]1CC[C@@H]2CN1C(=O)N2OS(=O)(=O)[O-].[Na+]	32	267	16	2	200	8	43	313	169	0.06	> 3000	
O=C1N2C[C@@H](CC[C@H]2C(F)F)N1OS(=O)(=O)[O-].[Na+]	16	208	1	1	17	2	7	35	64	0.06	1600	
O=C1N2C[C@@H](CC[C@H]2CCl)N1OS(=O)(=O)[O-].[Na+]	32	135	16	2	84	8	28	26	443	0.06	> 3000	
O=C1N2C[C@@H](CC[C@H]2Cl)N1OS(=O)(=O)[O-].[Na+]	32	1	4	64	8	4	31	4	269	0.06		
O=C1N2C[C@@H](CC[C@H]2C(F)(F)c2nccs2)N1OS(=O)(=O)[O-].[Na+]	32	216	16	8	19	16	3	1	1110	0.125	> 3000	
O=C1N2C[C@@H](CC[C@H]2SC(F)(F)F)N1OS(=O)(=O)[O-].[Na+]	32	26	8	4	10	8	2	2	99	0.03	1320	
